The values that follow come from PMC4483659, “Amino Acid-Derived Metabolites from the Ascidian Aplidium sp” (Marine Drugs, 2015).

For orientation: MIC means the smallest concentration in the dilution series that meets the test's criterion for growth inhibition. For orientation: IC50 means the concentration that inhibits the measured activity by half.

Test [1] has as its system Staphylococcus aureus (ATCC 6538p). Put plainly: Antibacterial assay, S. aureus. As to conditions: ATCC6538P, read-out: MIC, A: Staphylococcus aureus. The format is cell-based. The protocol: (§1) The cytotoxicity assays were performed in accordance with the literature protocols. The Na^+/K^+-ATPase, isocitrate lyase, and sortase A inhibition assays were performed according to previously described methods. The antimicrobial assays were performed according to the method described previously.

Test [2] concerns Bacillus subtilis (ATCC 6633). Kind of test: Antibacterial assay, B. subtilis. Type of test: cell-based. The protocol: as §1
The subject of test [3] is Micrococcus luteus (IFO 12708). Put plainly: Antibacterial assay, M. luteus. The format is cell-based. The protocol: as §1
Test [4] deals with Salmonella typhimurium (ATCC 14028). Put plainly: Antibacterial assay, S. typhimurium. The format is cell-based. As to conditions: Salmonella enterica, read-out: MIC, D: Salmonella typhimurium. The protocol:
as §1

For test [5], the system named is Proteus vulgaris (ATCC 3851). Kind of test: Antibacterial assay, P. vulgaris. The format is cell-based. The protocol:
as §1

Test [6] has as its system Escherichia coli (ATCC 35270). Put plainly: Antibacterial assay, E. coli. The format is cell-based. On the procedure:
as §1

The subject of another test is K562 leukemia cell-line. Put plainly: Cytotoxicity, K562 leukemia cell-line. The format is cell-based. As to conditions: Homo sapiens. On the procedure: as §1
Test [7] has as its system A549 lung cancer cell-line. Kind of test: Cytotoxicity, A549 lung cancer cell-line. The format is cell-based. As to conditions: Homo sapiens. The protocol:
as §1

Test [8] relates to MRC5 human lung fibroblast cell-line. Kind of test: Cytotoxicity, MRC5 normal cell-line. The format is cell-based. The protocol:
as §1

The target of a further test is Na^+/K^+-ATPase. Put plainly: Na+/K+-ATPase inhibition assay. Type of test: biochemical. As to conditions: enzyme inhibition. The protocol: as §1
In the next test the target is sortase A (Staphylococcus aureus, UniProt Q2FV99). Kind of test: Sortase A inhibition assay. The format is biochemical. On the procedure: as §1
Sequence of sortase A (Q2FV99 whole entry): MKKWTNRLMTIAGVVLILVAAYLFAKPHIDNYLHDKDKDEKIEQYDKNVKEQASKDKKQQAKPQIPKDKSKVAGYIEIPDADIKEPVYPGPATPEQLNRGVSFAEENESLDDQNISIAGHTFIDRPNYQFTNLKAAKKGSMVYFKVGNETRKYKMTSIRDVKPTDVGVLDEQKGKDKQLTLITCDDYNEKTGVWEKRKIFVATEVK
The mark [9] stands for this setting: ATCC6633, Gram(+), ATCC 6633, read-out: MIC, B: Bacillus subtilis.
[10] abbreviates: IFO12708, Gram(+), IFO 12708, read-out: MIC, C: Micrococcus luteus.
[11] abbreviates: ATCC3851, Gram(−), ATCC 3851, read-out: MIC, E: Proteus vulgaris.
[12] abbreviates: ATCC35270, Gram(−), ATCC 35270, read-out: MIC, F: Escherichia coli.
The mark [13] stands for this setting: K562 leukemia cell-line cytotoxicity, read-out: IC50, K562.
Setting [14] is: A549 lung cancer cell-line cytotoxicity, read-out: IC50, A549.
Where [15] appears, read: MRC5 human lung fibroblast (normal) cell-line cytotoxicity, read-out: IC50, MRC5.

Converted amounts (≈) assume the structure as drawn. Like-named read-outs stand apart in the source and are kept apart here. A value given as a limit tells only on which side of the number the result lay.

In the case of `CC1(C)S[C@@H]2[C@H](NC(=O)[C@H](N)c3ccccc3)C(=O)N2[C@H]1C(=O)O` [Ampicillin, reference compound], the MIC came out at 0.4 µg/mL (≈ 1.14 µM) in test [1] (Gram(+), ATCC 6538p); 0.4 µg/mL (≈ 1.14 µM) in test [2] (setting [9]); 0.4 µg/mL (≈ 1.14 µM) in [3] (setting [10]); 0.4 µg/mL (≈ 1.14 µM) in test [4] (Gram(−), ATCC 14028); 0.8 µg/mL (≈ 2.29 µM) in test [5] (setting [11]); 6.3 µg/mL (≈ 18 µM) in test [6] (setting [12]).

Turning to `CN[C@@H](Cc1cc(I)c(OC)c(I)c1)C(=O)NCCc1ccccc1` [Compound 1, apliamide A], the IC50 in the test with K562 leukemia cell-line (setting [13]) is 14.3 µM; in [7] (setting [14]) it was greater than 100 µM; in [8] (setting [15]) it was 59.2 µM; on Na^+/K^+-ATPase, 163 µM; against sortase A it was greater than 300 µM. Besides, the minimal inhibitory concentration (MIC) in test [1] (Gram(+), ATCC 6538p) was greater than 100 µg/mL; in [2] (setting [9]) it was greater than 100 µg/mL; in test [3] (setting [10]), greater than 100 µg/mL; in test [4] (Gram(−), ATCC 14028), greater than 100 µg/mL; in test [5] (setting [11]), greater than 100 µg/mL; in [6] (setting [12]) it was greater than 100 µg/mL.

As to `COc1c(I)cc(C[C@@H](C(=O)NCCc2ccccc2)N(C)C)cc1I` [Compound 2, apliamide B], the IC50 is 21.1 µM in the test on K562 leukemia cell-line (setting [13]); 10.8 µM in [7] (setting [14]); 73.7 µM in test [8] (setting [15]); greater than 200 µM on Na^+/K^+-ATPase; greater than 300 µM against sortase A. Moreover, the minimal inhibitory concentration (MIC) is greater than 100 µg/mL in test [1] (Gram(+), ATCC 6538p); greater than 100 µg/mL in test [2] (setting [9]); greater than 100 µg/mL in test [3] (setting [10]); greater than 100 µg/mL in test [4] (Gram(−), ATCC 14028); greater than 100 µg/mL in test [5] (setting [11]); greater than 100 µg/mL in test [6] (setting [12]).

Regarding `COc1ccc(CCNC(=O)[C@H](Cc2cc(I)c(OC)c(I)c2)N(C)C)cc1I` [Compound 3, apliamide C], the IC50 in the test on K562 leukemia cell-line (setting [13]) is 10.4 µM; in test [7] (setting [14]), 13.4 µM; in test [8] (setting [15]), greater than 100 µM; at Na^+/K^+-ATPase it was greater than 200 µM; against sortase A, greater than 300 µM. The MIC in test [1] (Gram(+), ATCC 6538p) was greater than 100 µg/mL; in test [2] (setting [9]) it was greater than 100 µg/mL; in test [3] (setting [10]), greater than 100 µg/mL; in [4] (Gram(−), ATCC 14028), greater than 100 µg/mL; in [5] (setting [11]), greater than 100 µg/mL; in test [6] (setting [12]) it was greater than 100 µg/mL.

`COc1c(I)cc(/C=C/C(=O)NCCc2ccccc2)cc1I` [Compound 4, apliamide D]: the half-inhibitory concentration (IC50) in the test on K562 leukemia cell-line (setting [13]) was 18.2 µM; in [7] (setting [14]) it was greater than 100 µM; in test [8] (setting [15]), greater than 100 µM; against Na^+/K^+-ATPase, 3.2 µM; on sortase A it was greater than 300 µM. Further, the MIC in [1] (Gram(+), ATCC 6538p) is greater than 100 µg/mL; in test [2] (setting [9]) it was greater than 100 µg/mL; in test [3] (setting [10]) it was greater than 100 µg/mL; in [4] (Gram(−), ATCC 14028), greater than 100 µg/mL; in test [5] (setting [11]), greater than 100 µg/mL; in test [6] (setting [12]), greater than 100 µg/mL.

`CN(C)[C@@H](Cc1c[nH]c2cc(Br)ccc12)C(=O)NCCc1ccccc1` [Compound 5, apliamide E]: the IC50 in the test on K562 leukemia cell-line (setting [13]) is 7.8 µM; in test [7] (setting [14]) it was 22.8 µM; in test [8] (setting [15]), 37 µM; against Na^+/K^+-ATPase it was greater than 200 µM; against sortase A it was greater than 300 µM. Besides, the minimum inhibitory concentration (MIC) is greater than 100 µg/mL in test [1] (Gram(+), ATCC 6538p); greater than 100 µg/mL in test [2] (setting [9]); greater than 100 µg/mL in test [3] (setting [10]); greater than 100 µg/mL in [4] (Gram(−), ATCC 14028); greater than 100 µg/mL in test [5] (setting [11]); greater than 100 µg/mL in test [6] (setting [12]).

Take `COc1c(I)cc(CCN(C)C)cc1I` [Compound 6, apliamine A]: the IC50 was 19.7 µM in the test on K562 leukemia cell-line (K562, read-out: IC50, K562); 8.3 µM in test [7] (A549, read-out: IC50, A549); greater than 100 µM in test [8] (Homo sapiens, MRC5, read-out: IC50, MRC5); 189 µM against Na^+/K^+-ATPase; greater than 300 µM against sortase A. In addition, the MIC in test [1] was greater than 100 µg/mL; in [2] (ATCC6633, read-out: MIC, B: Bacillus subtilis), greater than 100 µg/mL; in [3] (IFO12708, read-out: MIC, C: Micrococcus luteus), greater than 100 µg/mL; in [4], greater than 100 µg/mL; in test [5] (ATCC3851, read-out: MIC, E: Proteus vulgaris), greater than 100 µg/mL; in test [6] (ATCC35270, read-out: MIC, F: Escherichia coli) it was greater than 100 µg/mL.

On to `COc1cccc2c1C(=O)c1c(O)c3c(c(O)c1C2=O)C[C@@](O)(C(=O)CO)C[C@@H]3O[C@H]1C[C@H](N)[C@H](O)[C@H](C)O1` [Doxorubicin, reference compound], for which the IC50 in the test on K562 leukemia cell-line (setting [13]) turned out to be 1.2 µM; in test [7] (setting [14]), 1.4 µM; in [8] (setting [15]), 9.8 µM.

Take `O=C(O)c1cc[c]([Hg][OH])cc1` [pHMB, para-Hydroxymercuribenzoic acid, reference compound]: the IC50 on sortase A (sortase A inhibition, read-out: IC50, Srt A) came to 109 µM.
